Patent US7572923B2, “Indirubin derivatives having anticancer property against human cancer cell line” (Anygen Co., Ltd., priority 2004, dated 2009)

What was measured:
RK3E-Ras cells [1] = assay: Annexin-V-FLUOS/propidium iodide double staining assay for apoptosis; type: cell-based, rat; conditions: 1 μM, 24 hours
Description: Annexin-V-FLUOS/propidium iodide double staining assay is a sensitive method for measuring apoptosis in cell level by detecting exposed phosphatidyl serine in apoptotic cell membrane.
RK3E-Ras cell is seeding in 6×10^5 level on cover side. Indirubin derivatives 011, 012 and 030 are treated in 1 μM concentration for 24 hours. As a control, cells without treating any compound are employed. After 24 hours, cells are annexin-V-FLUOS/propidium iodide double stained using annexin-V-FLUOS staining kit. […] It is confirmed that apoptosis of cells treated with indirubin derivatives 011, 012 and 030 is processed.

[2] = test system: human stomach cancer cell line (SNU-638); assay: Inhibition of cancer cell line proliferation, SNU-638; type: cell-based; conditions: 96 h, 3˜4 days incubation, absorbance at 515 nm
Description: (§1) For measuring the proliferation inhibition by indirubin compound, the method disclosed in K. Likhitwitayawuid et al. Journal. Nat. Prod. […] Followings are simple description of this method. The cancer cell line is diluted into 5×10^4 cfu/ml. Then, various concentrations of test compounds are added to 96 well microtiter plate containing diluted cell line. After incubating test plate for 3˜4 days at 37° C., the test plate is dried and Tris-base is added. Then, using ELISA plate detector, the absorbance at 515 nm is measured. IC50 is measured by non-linear regression method.

RK3E-Ras cells [3] = assay: Cell viability by MTT assay; type: cell-based, rat; conditions: 1, 10, 20, 40 μM, 6, 12, 24, 48 hours
Description: To measure the influence to cell viability by indirubin derivative, RK3E-Ras cell, 1×10^5/well is seeding on 24 well plate. After incubation of cells for 12˜24 hours, indirubin derivative 011 in various concentration (1 μM, 10 μM, 20 μM, 40 μM) are treated for 6, 12, 24, 48 hours respectively. As control, cells without treating any compound are employed. […] FIG. 1 show the decline of cell viability after treatment of indirubin derivative 011.
According to the same condition in Example 3, other indirubin derivative 012, 030 are treated to measure the influence to cell viability.

[4] = test system: human leukemia cell line (HL-60); assay: Differentiation with low concentration 1,25-(OH)2D3 or ATRA, NBT reduction method; type: cell-based
Description: (§2) For measuring the differentiation inducing effect to acute bone merrow leukemia cell line (HL-60) by indirubin AGM compound, NBT (nitroblue tetrazolium) reduction reaction method is employed. The leukemia cell line is diluted into 2×10^5 cfu/ml. After treating 20 μM and 1 μM concentrations of test compounds, test plate is incubated for 3 days at 37° C. in 5% CO2 incubator. Incubated cells are washed with phosphate buffered saline (PBS). Then, they are further incubated in PBS solution containing 0.1% NBT and 200 ng/ml of PMA (phorbol 12-myristate 13-acetate) for 30 minutes at 37° C. Incubated cells are centrifuged and collected cells are washed with PBS solution. Using cell number counter, differentiated cells forming nitroblue formazan among total cells are counted.
Next, we test if AGM compound of present invention can synergically induce the differentiation of acute bone merrow leukemia cell line when it is treated with low concentration of 1,25-dihydroxyvitamin D3[1,25-(OH)2D3] or all-trans retinoic acid (ATRA) known as differentiation inducing agent. […] […] As a positive control, conventional differentiation inducing agent is used.

RK3E-ras solid tumor [5] = assay: Histological appearance of tumor lesion, H&E stain; type: in vivo, Sprague Dawley rat; conditions: rat tumor tissue
Description: (§3) 1×10^7 of RK3E-ras cells is injected to Sprague Dawley rat to induce solid tumor for 5 days and experimental groups of animals are employed by size and volume of tumor in these animals. 100 mM of indirubin derivative is injected to experimental group of animals 5 times in every other day.
To observe histological appearance of tumor lesion after indirubin derivatives 011, 012 and 030 treatment, tumor tissue is immobilized in para-formaldehyde solution and is treated with paraffin. Then, H&E stain is carried out. […] From this experiment, indirubin derivatives of the present invention induce apoptosis of tumor, which results in the suppression of tumor formation in tissue level. FIG. 8 is photography showing the appearance of tumor lesion after treating indirubin derivatives 011, 012 and 030 of present invention.

[6] = test system: human colon cancer cell line (Col2); assay: Inhibition of cancer cell line proliferation, Col2; type: cell-based; conditions: 96 h, 3˜4 days incubation, absorbance at 515 nm
Description: as §1

[7] = test system: human lung cancer cell line (A549); assay: Inhibition of cancer cell line proliferation, A549; type: cell-based; conditions: 96 h, 3˜4 days incubation, absorbance at 515 nm
Description: as §1

RK3E-Ras cells [8] = assay: DNA fragmentation, agarose gel electrophoresis; type: cell-based, rat; conditions: 10 μM
Description: We test if the decline of cell viability by indirubin derivative 011 relates to apoptosis of cell or not. Genomic DNA from cells treated with indirubin derivative 011 is isolated and fragmented. RK3E-Ras cell, 6×10^5/well is seeding on 6 well plate. After incubation of cells for 12˜24 hours, 10 μM of indirubin derivative 011 is treated with cells. As a control, cells without treating any compound or cells treating DMSO in same concentration are employed.

[9] = test system: leukemia cell line (HL-60); assay: Differentiation inducing effect, NBT reduction method; type: cell-based, human; conditions: 3 days
Description: as §2, with “After treating 20 μM and 1 μM concentrations of test compounds, test plate is incubated for 3 days at 37° C. in 5% CO2 incubator.” left out

human cancer cell line = assay: Inhibition of cancer cell line proliferation, overall conclusion; type: cell-based; conditions: conclusion from Table 2
Description: as §1

[10] = test system: human leukemia cell line (HL-60); assay: Inhibition of cancer cell line proliferation, HL-60; type: cell-based; conditions: HL-60, 96 h, HL60, 3˜4 days incubation, absorbance at 515 nm
Description: as §1

RK3E-ras solid tumor [11] = assay: Tumor suppression in RK3E-ras tumor induced rats; type: in vivo; conditions: Sprague Dawley rat; for size and volume of tumor: 100 mM injected 5 times in every other day
Description: RK3E cell is one of rat kidney cell and it is immortalized by EA1 oncogene. […] Inventors prepares stable RK3E-k-ras cell line by infection of retroviral expression vector to express mutant k-ras of oncogene. Prepared cell line is intramuscularly infected to Sprague Dawley rat to induce tumor. […] Tumor suppression effect by indirubin derivatives 011, 012 and 030 is measured through tumor induced rats.
as §3
Tumor is measured by vernier caliper and the volume of tumor is calculated by Carlsso calculation method {V=1/2(a.b^2), a: long axis, b: short axis}.

[12] = test system: human abdominal cavity cancer cell line (HT 1080); assay: Inhibition of cancer cell line proliferation, HT 1080; type: cell-based; conditions: HT-1080, 96 h, HT108, 3˜4 days incubation, absorbance at 515 nm
Description: as §1

[13] = test system: human cell line (HT 1080); assay: as above; type: cell-based; conditions: HT-1080, 96 h, read-out: IC50 HT108
Description: as §1

| Structure (SMILES) | annexin-V green fluorescence staining versus control (RK3E-Ras cells [1]) | IC50 [2] [µM] | cell viability according to increase of compound concentration (RK3E-Ras cells [3]) | histological appearance of tumor lesion (RK3E-ras solid tumor [5]) | IC50 [6] [µM] | IC50 [7] [µM] | inhibitor against proliferation of human cancer cell line (human cancer cell line) | IC50 [10] [µM] | size and volume of tumor (RK3E-ras solid tumor [11]) | other results |
| --- | --- | --- | --- | --- | --- | --- | --- | --- | --- | --- |
| O=C1Nc2ccc([N+](=O)[O-])cc2C1=C1Nc2ccccc2C1=NO [AGM011, 5′-nitro-1H,1′H-[2,3′] biindolylidene-3,2′-dione 3-oxime] | far more stained by green fluorescence than cells of control group | 1.21 | rapidly declined | necrosis or calcification of tumor is observed | 25.5 | 5.43 | effective inhibitor | 9.23 | decrease | progress of apoptosis (RK3E-Ras cells [1]; FIG. 4): fast processed; % of Differentiation, 1,25-(OH)2D3 ([4]; 0.2 μM compound with 5 nM of 1,25-(OH)2D3): 31.79 ± 0.87%; % of Differentiation, all-trans RA ([4]; 0.2 μM compound with 50 nM of ATRA): 34.87 ± 0.74%; DNA fragmentation (RK3E-Ras cells [8]; 12 hours): some DNA fragmentation occurs; DNA fragmentation (RK3E-Ras cells [8]; 24 hours): clear DNA fragmentation is detected; % of Differentiation ([9]; 0.2 μM compound): 24.02 ± 0.85%; suppression against tumor (tumor volume) (RK3E-ras solid tumor [11]; tumor volume by vernier caliper, V=1/2(a.b^2)): 80%; IC50 [12]: 5.87 µM |
| O=C1Nc2ccc(F)cc2C1=C1Nc2ccccc2C1=NO [AGM012, 5′-fluoro-1H,1′H-[2,3′] biindolylidene-3,2′-dione 3-oxime] | far more stained by green fluorescence than cells of control group | 2.06 | rapid decline of cell viability | necrosis or calcification of tumor is observed | 64.2 | 13.2 | effective inhibitor | 89.3 | decrease | % of Differentiation, 1,25-(OH)2D3 ([4]; 1 μM compound with 5 nM of 1,25-(OH)2D3): 24.29 ± 1.34%; % of Differentiation, all-trans RA ([4]; 1 μM compound with 50 nM of ATRA): 54.81 ± 1.65%; % of Differentiation ([9]; 1 μM compound): 32.71 ± 1.73%; IC50 [13]: 3.41 µM |
| CC(C)(C)C(=O)Nc1ccc2c(c1)C(=C1Nc3ccccc3C1=NO)C(=O)N2 [AGM030, 5-NH-trimethylacetyl-indirubin-3-oxime] | far more stained by green fluorescence than cells of control group | – | rapid decline of cell viability | necrosis or calcification of tumor is observed | – | – | – | – | decrease | – |
